# Assay results: patent US7923440B2, “Method of treating or preventing immune mediated disorders and pharmaceutical formulation for use therein” (Pantarhei Bioscience B.V., priority 2002, dated 2011)
# Like-named read-outs stand apart in the source and are kept apart here.
# What was measured:
# [1] = tested on: male DBA/1 mice with collagen induced arthritis (CIA); test: Collagen induced arthritis (CIA) in male DBA/1 mice, oral treatment; format: in vivo, mouse; conditions: for average day of disease onset (arthritis): vehicle 25.4±0.64
# Description: The ability of estetrol to alleviate the severity of immune mediated disorders and its possible side-effects were evaluated and compared with dexamethasone in mice developing collagen induced arthritis (CIA), which is another experimental system of autoimmune and chronic inflammatory disease, representing human arthritic diseases, particularly rheumatoid arthritis (RA).
# Arthritis was induced in male DBA/1 mice using a two-step immunization protocol (Joosten et al., “Dual role of IL-12 in early and late stages of murine collagen type II arthritis”. J Immunol 1997; 159:4094-4102; Joosten et al., “IL-1β blockade prevents cartilage and bone destruction in murine type II collagen-induced arthritis, whereas TNFα blockade only ameliorates joint inflammation”. J Immunol 1999; 163:5049-55). This strain is highly susceptible to CIA induced with bovine type II collagen. On day 0, mice were immunized with bovine type II collagen (100 μg) emulsified in Freund's complete adjuvant (four subcutaneous injections in the back). On day 21, mice were boosted with an i.p. injection of 100 μg collagen type II diluted in PBS.
# The effect of oral treatment with estetrol on collagen-induced arthritis was studied in a 6-week study design. From day 22 until the end of the study (day 42), the animals were treated once daily with vehicle (hydroxypropyl-beta-cyclodextrin in a 20% wt/vol solution in water) serving as negative control or four different dosages of estetrol (3 mg/kg, 1 mg/kg, 0.3 mg/kg and 0.1 mg/kg). Dexamethasone (1 mg/kg), was chosen as a positive control because it is a well studied corticosteroid that reduces swelling and inflammation and is used in a variety of disorders such as skin diseases (psoriasis, hives), allergic conditions, breathing problems, cancer, blood disorders (anemia), digestive problems, eye disorders and for the treatment of arthritis. Although effective as an anti-inflammatory agent, dexamethasone is also known to induce a number of side effects, which amongst others include in humans the induction of osteoporosis, reduced adrenal function, dizziness, nausea, indigestion, increased appetite, weight gain due to enhanced water retention, weakness and/or sleep disturbances. In addition, systemic dexamethasone treatment in rodents results in strong catabolic effects that can be easily observed as weight loss (Orzechowski et al. 2002, “Rats with a glucocorticoid-induced catabolic state show symptoms of oxidative stress and spleen atrophy: the effects of age and recovery”. J Vet Med A Physiol Pathol Clin Med; 49:256-63).
# All groups used in the study consisted of 13 mice. During the study animals were weighed and monitored for clinical signs of arthritis. Scoring of disease severity (clinical arthritis score) was performed according to scoring system described by Joosten et al. 1997 (J. Immunol., 159:4094-4102) and Joosten et al. 1999 (J. Immunol., 163:5049-55).
# Basic statistical analyses were performed as follows: The significance of differences between all treatment groups in the main clinical outcome parameters was tested using analysis of variance (ANOVA). Each significant ANOVA was followed by post hoc Tukey tests to determine the significance of the difference between each treatment group and the control group. Furthermore, linear regression analysis was used to study the dose-dependency of the effects of treatment with estetrol. All statistical analysis were performed using statistical software program SPSS 10.0 for Windows (SPSS Inc., Chicago, Ill., USA).
# [2] = tested on: DBA-1 mice developing collagen induced arthritis (CIA); test: Collagen induced arthritis (CIA) in female DBA-1 mice; format: in vivo, mouse
# immature rat uterus = conditions: subcutaneously administered, cited from earlier work
# [3] = tested on: estrogen receptors in the human endometrium; conditions: cited from earlier work
# [4] = Single rising oral dose study in healthy postmenopausal volunteers; format: in vivo, human
# Description: To determine the bioavailability and elimination half-life of estetrol after oral dosing in humans a single rising dosing study was performed in healthy postmenopausal volunteers. Volunteers (n=6) were randomly assigned to 0.1, 1 or 10 mg estetrol and blood samples (18 per volunteer) were obtained over a period of 72 hours.
# After thawing the plasma samples, liquid-liquid extraction (hexane and diethyl ether) was employed to prepare the estetrol-containing plasma samples for HPLC analysis (Perkin Elmer 200) and tandem mass spectrometry using a PE Sciex 4000 tandem mass spectrometer and APCI interface. With each sample batch, a calibration curve with 6 calibrators was recorded. The calibration curve was calculated using linear regression (correlation coefficient >0.98), which permitted quantitation of plasma concentrations.
# human ERα = target: T1, human ERα (Homo sapiens, UniProt P03372); test: Competitive steroid binding assay, ERα; conditions: relative preference for binding to ERα protein, from Ki values
# T1 sequence (P03372 1-595): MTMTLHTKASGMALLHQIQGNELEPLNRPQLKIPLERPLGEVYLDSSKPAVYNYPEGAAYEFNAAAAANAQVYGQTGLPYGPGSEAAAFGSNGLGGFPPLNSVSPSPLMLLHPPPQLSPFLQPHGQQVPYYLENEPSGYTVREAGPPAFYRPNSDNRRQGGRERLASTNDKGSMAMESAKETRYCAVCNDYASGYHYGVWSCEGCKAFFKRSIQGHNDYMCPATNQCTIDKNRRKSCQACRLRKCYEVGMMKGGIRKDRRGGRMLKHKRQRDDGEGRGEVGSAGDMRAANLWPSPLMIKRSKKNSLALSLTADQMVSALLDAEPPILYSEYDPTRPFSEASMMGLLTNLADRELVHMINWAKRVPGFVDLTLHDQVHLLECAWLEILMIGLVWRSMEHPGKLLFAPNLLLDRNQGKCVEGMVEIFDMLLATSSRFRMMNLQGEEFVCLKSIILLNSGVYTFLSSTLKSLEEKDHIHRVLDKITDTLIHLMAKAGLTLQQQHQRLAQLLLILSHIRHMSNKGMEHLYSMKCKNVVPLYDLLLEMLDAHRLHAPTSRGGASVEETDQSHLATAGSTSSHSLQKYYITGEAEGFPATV
# uterus = conditions: continuous administration from a subcutaneous depot, Martucci et al. 1977; cited from earlier work
# [5] = intravenous, two adult women, Fishman et al. 1970; cited from earlier work
# [6] = ovariectomized female DBA-1 mice, sc and oral 0.1-3.0 mg/kg/day, 60 days
smiles,measurement,setting,value
"C[C@]12CC[C@@H]3c4ccc(O)cc4CC[C@H]3[C@@H]1[C@@H](O)[C@@H](O)[C@@H]2O [E4, 1,3,5 (10)-estratrien-3,15α,16α,17β-tetrol]",average day of disease onset (arthritis),[1]; oral 0.1 mg/kg,25.8 days
same,average day of disease onset (arthritis),[1]; oral 0.3 mg/kg,26.0 days
same,increase in disease incidence versus vehicle,[1]; oral 1.0 mg and 3.0 mg/kg groups,clearly delayed
same,average day of disease onset (arthritis),[1]; oral 1.0 mg/kg,28.2 days
same,"body weight, % of initial weight (day 21)","[1]; oral 3.0 mg/kg, day 28",99.3%
same,"body weight, % of initial weight (day 21)","[1]; oral 3.0 mg/kg, day 35",96.7%
same,"body weight, % of initial weight (day 21)","[1]; oral 3.0 mg/kg, day 42",97.9%
same,average day of disease onset (arthritis),[1]; oral 3.0 mg/kg,30.7 days
same,average cumulative arthritis score,"[1]; oral 0.1-3 mg/kg, day 21 to 42",dose-dependently reduced and significantly different as compared to vehicle-treated animals
same,development of macroscopical arthritis score,"[1]; oral 0.1-3 mg/kg, day 22-42",dose-dependently reduced
same,weight loss,"[1]; oral, lower three doses (0.1, 0.3 and 1.0 mg/kg)",comparable to the negative and positive control animal groups
same,symptoms and severity of CIA,"[2]; non-castrated female DBA-1, daily sc and/or oral",dose-dependently alleviate symptoms and severity of CIA
same,number of afflicted animals and/or severity of CIA symptoms,[2]; [6],dose-dependently reduced
same,onset of CIA symptoms,[2]; [6],dose-dependent effects in delaying the onset of CIA symptoms
same,uterotrophic activity,immature rat uterus; Holinka et al. 1979,very weak uterotrophic activity
same,uterotrophic activity,immature rat uterus; Holinka et al. 1980,very weak uterotrophic activity
same,relative binding constant compared to 17β-estradiol (100%),[3]; Tseng et al. 1976,6.25%
same,"Relative binding to estrogen receptors, of 17β-estradiol",[3]; Tseng et al. 1978,1.5%
same,half-life,"[4]; female, human, plasma, po, human postmenopausal subjects, read-out: elimination half-life",> 15 h
same,tolerability,"[4]; oral single dose 0.1, 1, 10 mg, postmenopausal volunteers",Good tolerability
same,AUC dose-linearity,"[4]; oral single dose 0.1 to 10 mg, postmenopausal volunteers",good dose-linearity
same,Relative ERα/ERβ preference,human ERα,400%
same,uterotrophic activity,uterus,very weak uterotrophic activity
same,excretion,[5],rapidly and completely excreted in urine as the glucosiduronate
same,metabolism,[5],virtually no metabolism except for conjugation took place
